Values of other authors, collected in patent US11026907B2, “Azelaic acid gel, preparation method and application thereof” (CHENGDU JOY YOUNG BIOTECHNOLOGY CO., LTD., priority 2018, dated 2021).
Read-outs that look alike come from different tables or passages of the source.

- Solubility (in cold water, ether and benzene): slightly soluble
- Solubility (in hot water, alcohol and some polyols): soluble
Structure (SMILES): O=C(O)CCCCCCCC(=O)O [Azelaic acid]
